We go through three compounds from patent US7740867B2, “Method for identification of virulence determinants” (priority 2000, dated 2010).

Test [1] concerns M. paratuberculosis strain K-10. In words: Minimal inhibitory concentration (MIC) determination. The format is cell-based, Mycobacterium paratuberculosis. An excerpt: The exact amount of the antimicrobial used will vary with the particular substance and organism in question. In general, the concentration of the antimicrobial should exceed the approximate minimal inhibitory concentration (MIC) for the particular organism being studied. Determination of MIC is routine in the art and can be accomplished by the skilled technician without undue experimentation. […] In another embodiment, the concentration of Bay y 3118 is 5× the MIC. […] In yet another embodiment, the concentration of D-cycloserine is 5× the MIC.

Test [2] shares this test system. In words: Susceptibility of growing and non-growing M. paratuberculosis in broth culture to antimicrobial agents. The test is classed as cell-based, Mycobacterium paratuberculosis. The protocol:
Antimicrobial agents (antibiotics) tested were the fluoroquinolone Bay y 3118, and D-cycloserine. The aminoglycoside amikacin which kills both growing and non-growing M. paratuberculosis, was included as a control. M. paratuberculosis strain K-10 was grown in complete Middlebrook 7H9 medium containing mycobactin J as described above to an optical density (OD600) of 0.3 to 0.4. For non growing conditions, cells (200 ml) were harvested at room temperature, washed in MSS (Middlebrook 7H9 salt solution: 1.0 g/L KH2PO4, 0.05 g/L MgSO4, NH4SO4, 2.5 g/L Na2HPO4, 0.0005 g/L CaCl2, 0.001 g/L ZnSO4, and 0.001 g/L CuSO4), and resuspended in MSS as a single-cell suspension (Williams et al., J. Clin. Microbiol., 37:304-309, 1999). Aliquots (10 ml at a cell density of 2×10^8 CFU/mL) were placed in sterile tissue culture flasks, and antibiotics were added at the following final concentrations Bay y 3118: 0.075 μg/mL (5×MIC) and 0.3 μg/mL (20×MIC); D-cyloserine: 125 μg/mL (5×MIC) and 500 μg/mL (20×MIC); amikacin: 10 μg/mL (5×MIC), and 40 μg/mL (20×MC). These cultures and a control without antibiotics (0×) were incubated at 37° C. and appropriate dilutions were plated in triplicate onto complete Middlebrook 7H9 medium at various time points. […] For growing conditions, cells were treated as described except that the growth control (0×) was diluted 1:10 and all cells were washed and resuspended in complete medium instead of MSS. The cells were also inoculated into MSS (no-growth control).

Test [3] deals with Mycobacterium avium within human macrophages. The settings on record: reported by Bermudez et al., 1999; cited from earlier work.
[4] abbreviates: 5× the MIC, MSS salt solution (non growing conditions), 37° C., FIG. 3.
The mark [5] stands for this setting: 5× the MIC, complete Middlebrook 7H9 medium (growing conditions), 37° C., FIG. 3.

Take `N[C@@H]1CONC1=O` [D-cycloserine]: the MIC result in test [1] is reported as “approximately 25 μg/mL”. Also, the “effect on non growing bacteria” value in test [2] (setting [4]) is recorded as “moderate bactericidal effect”; in test [2] (20× the MIC, MSS salt solution (non growing conditions), 37° C., FIG. 3), “moderate bactericidal effect”. In addition, the “effect on growing bacteria” value in test [2] (setting [5]) is on record as “moderate bactericidal effect”; in test [2] (20× the MIC, complete Middlebrook 7H9 medium (growing conditions), 37° C., FIG. 3), “moderate bactericidal effect”.

Regarding `NCC[C@H](O)C(=O)N[C@@H]1C[C@H](N)[C@@H](O[C@H]2O[C@H](CN)[C@@H](O)[C@H](O)[C@H]2O)[C@H](O)[C@H]1O[C@H]1O[C@H](CO)[C@@H](O)[C@H](N)[C@H]1O` [Amikcin, amikacin], the “susceptibility of bacteria in stasis compared with growing bacteria” value in test [2] (concentration not given (5× and 20× MIC tested)) is given as “particularly more susceptible”. In addition, the “effect on growing bacteria” value in test [2] (concentration not given (5× and 20× MIC tested), growing conditions) is “bactericidal”. Also, in test [2] (concentration not given (5× and 20× MIC tested), non growing conditions), the “effect on non growing bacteria” value was “bactericidal”.

Take `Cl.O=C(O)c1cn(C2CC2)c2c(Cl)c(N3C[C@@H]4CCCN[C@@H]4C3)c(F)cc2c1=O` [Bay y 3118]: the MIC entry in test [1] was “approximately 0.015 μg/mL”. Besides, in test [2] (setting [4]), the “effect on non growing bacteria” value is on record as “does not kill non growing bacteria”. For the same compound, the “effect on growing bacteria” value in test [2] (setting [5]) is on record as “has a bactericidal action on growing bacteria”. Further, in test [3], the “killing of growing versus non-growing Mycobacterium avium within human macrophages” value is given as “kill growing but not non-growing”.
